# Paper PMC6720511, “Synthesis and biological evaluation of novel N-(piperazin-1-yl)alkyl-1H-dibenzo[a,c]carbazole derivatives of dehydroabietic acid as potential MEK inhibitors” (Journal of Enzyme Inhibition and Medicinal Chemistry, 2019)
# Assays:
# MEK1 = target: T1, MEK1 (Homo sapiens, UniProt Q02750); assay: In vitro MEK1 inhibition assay (ADP-Glo kinase assay); assay type: biochemical; conditions: recombinant GST-MEK1, GST-ERK2, 10 µM ATP, mean value ± SD; read-out: MEK1 inhibitory activity IC50 value
# T1 construct: purchased Carna Biosciences, Japan
# T1 sequence (Q02750 whole entry): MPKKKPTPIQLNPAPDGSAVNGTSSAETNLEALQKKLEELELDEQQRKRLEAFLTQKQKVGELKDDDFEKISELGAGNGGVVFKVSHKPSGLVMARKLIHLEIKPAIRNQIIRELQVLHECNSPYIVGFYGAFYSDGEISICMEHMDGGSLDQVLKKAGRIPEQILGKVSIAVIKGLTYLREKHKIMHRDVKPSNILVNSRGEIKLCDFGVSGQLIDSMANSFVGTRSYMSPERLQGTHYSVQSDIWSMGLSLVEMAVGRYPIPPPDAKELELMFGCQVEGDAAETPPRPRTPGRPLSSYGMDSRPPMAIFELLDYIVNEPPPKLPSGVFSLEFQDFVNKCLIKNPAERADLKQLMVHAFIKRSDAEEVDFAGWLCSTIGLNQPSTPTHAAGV
# Description: An in vitro kinase assay of MEK1 was performed using ADP-Glo kinase assay (Promega, Madison, WI, USA) according to the manufacturer’s protocol. […] Reactions were stopped by adding 5 µL of ADP-Glo reagent to each well. After incubating at 22 °C for 40 min, 10 µL of the kinase detection reagent was added and the plates were incubated for another 30 min at 22 °C in the dark. The reaction mixture was analysed by EnSpire (PerkinElmer, Waltham, MA, USA). U0126 was used as the positive control for MEK1 inhibition.
# HepG2 cells [1] = assay: Western blot of oncosis and apoptosis markers; assay type: cell-based, human
# Description: (§1) HepG2 cells were seeded at a density of 5 × 10^6 cells per well and attached for 8 h, and then treated with different concentrations of compound 10g for 48 h. After the treatment, the cells were harvested and washed twice with PBS. The harvested cells were lysed with radio-immunoprecipitation assay (RIPA) lysis buffer (Beyotime Biotech., Nantong, China) with 1% cocktail (Sigma-Aldrich, USA). Whole-cell protein lysates were prepared and centrifuged at 12,000 rpm for 10 min at 4 °C. The total proteins were determined using Bradford reagent (Bio-Rad Laboratories, Inc., USA). Exactly 40 µg of protein per lane was separated through sodium dodecyl sulfate-polyacrylamide gel electrophoresis and then transferred onto a polyvinylidene difluoride membrane (Millipore, Bedford, MA, USA). The membranes were incubated with each antibody and detected through immunoblot analysis. All of the antibodies were purchased from Cell signaling Technology, Inc. (Boston, MA, USA) and diluted in accordance with the manufacturer’s instruction. Proteins were visualized using a C-Digit® imaging system (LI-COR Biosciences, Lincoln, NE, USA).
# HepG2 = assay: MTT cytotoxic assay; assay type: cell-based, human; conditions: Homo sapiens, HepG2, 48 h, mean value ± SD
# Outline: (§2)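 Cells seeded at 2 × 10^5 cells/mL in DMEM + 10% FBS attached for 24 h, then were exposed to compounds for 48 h at 37 °C. MTT (2.5 mg/mL solution) was added for 4 h; DMSO-dissolved formazan was read at 570 nm. Normal QSG-7701 hepatocytes were tested alongside; doxorubicin was positive control.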
# SMMC-7721 = assay: MTT cytotoxic assay; assay type: cell-based, human; conditions: Homo sapiens, SMMC-7721, 48 h, mean value ± SD
# Outline: as §2
# Hep3B = assay: MTT cytotoxic assay; assay type: cell-based, human; conditions: Homo sapiens, Hep3B, 48 h, mean value ± SD
# Outline: as §2
# HepG2 cells [2] = assay: ROS generation assay (DCFH-DA); assay type: cell-based, human; conditions: dose-dependent
# Description: Reactive oxygen species (ROS) generation assay was performed by using the reactive oxygen species assay kit (Beyotime Biotech., China). Intracellular ROS generation was tested through dichlorodihydro fluorescein diacetate (DCFH-DA) assay. DCFH-DA is taken up by HepG2 cells, and then activated by esterase-mediated cleavage of acetate to form dichlorodihydro fluorescein (DCFH), which is trapped in the cells. DCFH is converted to fluorescein DCF in the presence of ROS. HepG2 cells were seeded in six-well plates and incubated with different concentrations of compound 10g for 24 h. After removing the compound solution, cells were treated with 10 µM of DCFH-DA at 37 °C for 20 min. Subsequently, the cells were washed with PBS for three times and then exposed to light. Immediately after light exposure, cell images were acquired through an inverted fluorescence microscope (Olympus 1X71 Inverted System Microscope, Olympus, Tokyo, Japan).
# HepG2 cells [3] = assay: Lactate dehydrogenase (LDH) leakage assay; assay type: cell-based, human; conditions: HepG2, 5 µM, 24 h
# Description: The cell membrane integrity was determined by LDH leakage assay by using a LDH assay kit (Beyotime, China). In brief, HepG2 cells were plated on 96-well plates at the density of 5 × 10^3 cells per well and allowed to attach overnight. After being incubated with compound 10g for 24 h, the supernatants were collected and centrifuged at the speed of 1000 rpm and were subjected to LDH detection as the description in the manual. The absorbance at 490 nm was measured by a Cytation 3 Cell Imaging Multi-Mode Reader (BioTek Instruments, Inc., Winooski, VT, USA).
# [4] = Cell death inhibition assay; assay type: cell-based, human; conditions: human, HepG2 cells, 10g alone, 10 µM, read-out: relative cell viability of HepG2 cells
# Description: Figure 6. Compound 10g induced oncosis and apoptosis of HepG2 cells. (a) PD150606 and Z-VAD-FMK partially reversed compound 10g-induced cell death. HepG2 cells were incubated with PD150606, Z-VAD-FMK or Necrostatin-1 at indicated concentration for 24 h alone or in combination with compound 10g at indicated concentration for 24 h. (b) Compound 10g induced the degradation of α-tubulin and β-actin, and activated oncosis marker calpain-1 autolysis from the 80 kDa event to 76 kDa event in western blot analysis. *, p < 0.01; **, p < 0.01; #, p < 0.01; &, p < 0.001. (c) Compound 10g induced the upregulation of apoptotic protein Bax, caspase-3, caspase-9 and plasmic cytochrome c levels, and the downregulation of antiapoptotic protein Bcl-2 level. *, p < 0.001; **, p < 0.01; #, p < 0.01; and p < 0.01.
# pERK1/2 = assay: Western blot of ERK and pERK in HepG2 cells; assay type: cell-based, human; conditions: 48 h
# Description: as §1
# [5] = system: normal hepatocyte cell line (QSG-7701); assay: MTT cytotoxic assay on normal hepatocytes; assay type: cell-based, human; conditions: Homo sapiens, QSG7701, 48 h, mean value ± SD
# Outline: as §2
structure (smiles),measurement,setting,value
"CCOc1ccc2c(c1)c1c(n2CCN2CCNCC2)-c2cc(C(C)C)ccc2C2(C)CCCC(C)(C(=O)OC)C12 (stereo not shown) [Compound 10g, 2,3,4,4a,9,13c-Hexahydro-12-ethoxy-7-isopropyl-1,4a-dimethyl-9–(2-(piperazin-1-yl)ethyl)-1H-dibenzo[a,c]carbazole-1-carboxylic acid methyl ester]",IC50,MEK1,110 ± 20 nM
same,"level of cytochrome c, caspase-3 and caspase-9 (in words)",HepG2 cells [1],increased dose-dependently
same,ratio of Bax/Bcl-2 (in words),HepG2 cells [1],increased significantly
same,calpain-1 autolysis (in words),HepG2 cells [1]; 48 h,autolysed from 80 kDa event to 76 kDa event in a dose-dependent manner
same,level of α-tubulin and β-actin (in words),HepG2 cells [1]; dose-dependent,significant decrease
same,IC50,HepG2,510 ± 90 nM
same,IC50,SMMC-7721,1390 ± 130 nM
same,IC50,Hep3B,730 ± 80 nM
same,ROS generation (in words),HepG2 cells [2],remarkably induce ROS generation
same,relative LDH leakage level,HepG2 cells [3],93.03%
same,"viability at 24 h, 10 µM",[4],1.22%
same,"expression level of pERK1/2, % of the control group",pERK1/2; 0.1 µM,88.8%
same,"expression level of pERK1/2, % of the control group",pERK1/2; 0.5 µM,43.8%
same,"expression level of pERK1/2, % of the control group",pERK1/2; 1.0 µM,34.2%
same,expression levels of ERK1/2 (in words),pERK1/2; 0.1-1.0 µM,decreased slightly
same,IC50,[5],12500 ± 580 nM
